# System: 743489-274-T-PDC complex spheroid growth
# Test: Anticancer human tumor 743489-274-T-PDC patient-derived renal cell carcinoma cell line growth inhibition [AhR]
# Settings: for IC50: curve of first compound; for viability, T/C: stronger effect = lower value
# From the text: Multicellular complex tumor spheroid response to aryl hydrocarbon receptor antagonists in combination with a variety of drugs and investigational agents in selected tumor cell lines
# The current study was undertaken to assess response to aryl hydrocarbon receptor antagonists in combination with standard-of-care drugs and investigational agents in solid tumor complex spheroid models. Complex spheroids include a stromal component modeled by human endothelial cells (HUVEC) and fibroblasts modeled by human mesenchymal stem cells (MSCs). The concentration ranges selected for each drug and investigational agent were based upon clinically achievable concentrations if the clinical Cmax of the agent was known.
# Compounds. The drugs and investigational agents: BAY 2416964 (NSC825713), GNF351 (NSC835774), CH-223191 (NSC835775), CPI-455 (NSC825282), aza-TdCyd (NSC777586), decitabine (NSC127716), belinostat (NSC758774), entinostat (NSC756642), pevonedistat (NSC761192), tazemetostat (NSC777109), talazoparib (NSC765396), olaparib (NSC753686), selinexor (NSC780203), nedisertib (M3814, NSC802822), bortezomib (NSC756655), venetoclax (NSC766270), doxorubicin (NSC123127), elimusertib (BAY189344, NSC800525), ceralasertib (AZD6738, NSC777638), TAK-243 (NSC785004), alisertib (NSC759677), etoposide (NSC141540), topotecan (NSC609699), eribulin (NSC707389), gemcitabine (NSC613327), carboplatin (NSC241240), cisplatin (NSC119875), and SN-38 (NSC673596) were obtained from the National Cancer Institute (NCI) Developmental Therapeutics Program Chemical Repository (32). The FDA-approved anticancer drug set is available from the Developmental Therapeutics Program at https://dtp.cancer.gov/organization/dscb/obtaining/available plates.htm. […] The stock solutions were prepared in dimethyl sulfoxide (DMSO, Sigma-Aldrich, St. Louis, MO, cat. D2650), except for the platinum compounds which were prepared in saline (Quality Biological, Gaithersburg, MD, cat. 114-055-101), at 800-fold the tested concentration and stored at -70 degrees C prior to their use. All drugs and investigational agents were tested over a range starting from a high concentration at or near the clinical Cmax and decreasing in half-log increments. If the clinical Cmax for an agent had not been determined, the highest concentration tested was 10 microM (Table 1).
# Cell Culture. All cells were maintained in an incubator at 37 degrees C and 5% CO2 with 95% humidity. The PDC lines were cultured according to standard operating procedures established by the NCI PDMR (https://pdmr.cancer.gov). Briefly, all PDCs were thawed and cultured in Matrigel-coated flasks prepared with a working solution of 1X Ham's F-12 nutrient mix, without supplementation (Invitrogen, Waltham, MA, cat. 11765054), 100 U/mL penicillin-streptomycin (Invitrogen, cat. 15140122), and 2.5% Matrigel (Corning Inc., Corning, NY, cat. 354248) for the first three passages. All PDCs were cultured in complete DMEM/F-12 media containing advanced DMEM/F-12 (Invitrogen, cat. 12634028), 4.9% defined fetal bovine serum, heat inactivated (HyClone Laboratories Inc., Logan, UT, cat. SH30070.03HI), 389 ng/mL hydrocortisone (Sigma-Aldrich, cat. H4001), 9.7 ng/mL human EGF recombinant protein (Invitrogen, cat. PHG0313), 23.4 microg/mL adenine (Sigma-Aldrich, cat. A2786), 97.3 U/mL penicillin-streptomycin (Invitrogen, cat. 15140122), 1.9 mM L-glutamine (Invitrogen, cat. 25030081), and 9.7 microM Y-27632 dihydrochloride (Tocris Bioscience, Bristol, United Kingdom, cat. 1254). The PDCs were cultured in complete DMEM/F12 media without 10 microM Y-27632 dihydrochloride for at least two passages prior to the screen. The established cell lines NCI-H1341 and […] were cultured in DMEM/F-12, HEPES (Invitrogen, cat. 11330032), 5% defined fetal bovine serum (HyClone Laboratories Inc., cat. SH30070.03), ITS premix universal culture supplement [insulin (5 microg/mL), transferrin (5 microg/mL), and selenious acid (5 ng/mL)] […]
# [1] = second compound 0.1 µM, first compound 0.0316 µM
# [2] = second compound 0.1 µM, first compound 0.1 µM
# [3] = second compound 0.316 µM, first compound 0.0316 µM
# [4] = second compound 0.316 µM, first compound 0.1 µM
# [5] = second compound 1 µM, first compound 0.0316 µM
# [6] = second compound 1 µM, first compound 0.1 µM
# [7] = second compound 3.16 µM, first compound 0.0316 µM
# [8] = second compound 3.16 µM, first compound 0.1 µM
# [9] = second compound 10 µM, first compound 0.0316 µM
# [10] = second compound 10 µM, first compound 0.1 µM
# 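Also: spheroids exposed to agents for 7 days before readout.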
# 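For viability, T/C in this document: 100% = DMSO vehicle control wells.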
smiles,measurement,setting,value
O=C(C=Cc1cccc(S(=O)(=O)Nc2ccccc2)c1)NO + Cc1ccccc1N=Nc1ccc(NC(=O)c2ccnn2C)c(C)c1,IC50,second compound 0.1 µM,3110 nM
same,IC50,second compound 0.316 µM,2290 nM
same,IC50,second compound 1 µM,2140 nM
same,IC50,second compound 3.16 µM,3280 nM
same,IC50,second compound 10 µM,1240 nM
same,"viability, T/C",[1],78.6%
same,"viability, T/C",[2],88.4%
same,"viability, T/C","second compound 0.1 µM, first compound 0.316 µM",73%
same,"viability, T/C","second compound 0.1 µM, first compound 1 µM",67.7%
same,"viability, T/C","second compound 0.1 µM, first compound 3.16 µM",49.9%
same,"viability, T/C","second compound 0.1 µM, first compound 10 µM",31%
same,"viability, T/C",[3],85.4%
same,"viability, T/C",[4],78.3%
same,"viability, T/C","second compound 0.316 µM, first compound 0.316 µM",75.9%
same,"viability, T/C","second compound 0.316 µM, first compound 1 µM",62.6%
same,"viability, T/C","second compound 0.316 µM, first compound 3.16 µM",44.8%
same,"viability, T/C","second compound 0.316 µM, first compound 10 µM",26.9%
same,"viability, T/C",[5],77.1%
same,"viability, T/C",[6],75.6%
same,"viability, T/C","second compound 1 µM, first compound 0.316 µM",75.5%
same,"viability, T/C","second compound 1 µM, first compound 1 µM",70.6%
same,"viability, T/C","second compound 1 µM, first compound 3.16 µM",39.5%
same,"viability, T/C","second compound 1 µM, first compound 10 µM",25%
same,"viability, T/C",[7],79.7%
same,"viability, T/C",[8],81.2%
same,"viability, T/C","second compound 3.16 µM, first compound 0.316 µM",75.2%
same,"viability, T/C","second compound 3.16 µM, first compound 1 µM",68.9%
same,"viability, T/C","second compound 3.16 µM, first compound 3.16 µM",50.7%
same,"viability, T/C","second compound 3.16 µM, first compound 10 µM",25.8%
same,"viability, T/C",[9],75.4%
same,"viability, T/C",[10],76.9%
same,"viability, T/C","second compound 10 µM, first compound 0.316 µM",64%
same,"viability, T/C","second compound 10 µM, first compound 1 µM",56.1%
same,"viability, T/C","second compound 10 µM, first compound 3.16 µM",34%
same,"viability, T/C","second compound 10 µM, first compound 10 µM",27.9%
Cn1ncnc1C1c2n[nH]c(=O)c3cc(F)cc(c23)NC1c1ccc(F)cc1 (stereo not given) + CC(CO)NC(=O)c1cc(-c2ccc(Cl)cc2)nn(-c2cnn(C)c2)c1=O,IC50,second compound 0.1 µM,> 100 nM
same,IC50,second compound 0.316 µM,> 100 nM
same,IC50,second compound 1 µM,> 100 nM
same,IC50,second compound 3.16 µM,> 100 nM
same,IC50,second compound 10 µM,> 100 nM
same,"viability, T/C","second compound 0.1 µM, first compound 0.000316 µM",90.7%
same,"viability, T/C","second compound 0.1 µM, first compound 0.001 µM",98%
same,"viability, T/C","second compound 0.1 µM, first compound 0.00316 µM",106%
same,"viability, T/C","second compound 0.1 µM, first compound 0.01 µM",95%
same,"viability, T/C",[1],89.6%
same,"viability, T/C",[2],86.8%
same,"viability, T/C","second compound 0.316 µM, first compound 0.000316 µM",85.5%
same,"viability, T/C","second compound 0.316 µM, first compound 0.001 µM",95.8%
same,"viability, T/C","second compound 0.316 µM, first compound 0.00316 µM",115%
same,"viability, T/C","second compound 0.316 µM, first compound 0.01 µM",88%
same,"viability, T/C",[3],80.6%
same,"viability, T/C",[4],84.8%
same,"viability, T/C","second compound 1 µM, first compound 0.000316 µM",94.1%
same,"viability, T/C","second compound 1 µM, first compound 0.001 µM",97.6%
same,"viability, T/C","second compound 1 µM, first compound 0.00316 µM",102%
same,"viability, T/C","second compound 1 µM, first compound 0.01 µM",87%
same,"viability, T/C",[5],82.7%
same,"viability, T/C",[6],91.8%
same,"viability, T/C","second compound 3.16 µM, first compound 0.000316 µM",93.9%
same,"viability, T/C","second compound 3.16 µM, first compound 0.001 µM",92.2%
same,"viability, T/C","second compound 3.16 µM, first compound 0.00316 µM",91.4%
same,"viability, T/C","second compound 3.16 µM, first compound 0.01 µM",92.1%
same,"viability, T/C",[7],89.4%
same,"viability, T/C",[8],93.4%
same,"viability, T/C","second compound 10 µM, first compound 0.000316 µM",83.7%
same,"viability, T/C","second compound 10 µM, first compound 0.001 µM",86.3%
same,"viability, T/C","second compound 10 µM, first compound 0.00316 µM",85%
same,"viability, T/C","second compound 10 µM, first compound 0.01 µM",99%
same,"viability, T/C",[9],90.9%
same,"viability, T/C",[10],83.1%

# — PubChem BioAssay AID1919002 (Molecular Pharmacology Branch, DTP, NCI, 2023)
